# Reference: patent publication US20230085307A1, “PYRIDAZINONE COMPOUND AND HERBICIDE” (NISSAN CHEMICAL CORPORATION, priority 2019, published 2023)
# What was measured:
# late watergrass = assay: Test Example 1: herbicidal activity, application before weed generation under submerged conditions (Table 16, symbol A); type: in vivo, late watergrass (Echinochloa oryzicola)
# Procedure, shortened: (§1)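 Submerged Wagner pots (alluvial soil, 4 cm water) sown with weed seeds and planted with 2.5-leaf rice seedlings; emulsifiable concentrate diluted in water applied to water surface on sowing day. Held in greenhouse at 25-30 °C; injury scored 0-5 by herbicidal rate after three weeks.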
# Japanese bulrush = assay: Test Example 1: herbicidal activity, application before weed generation under submerged conditions (Table 16, symbol B); type: in vivo, Japanese bulrush (Schoenoplectus juncoides)
# Procedure, shortened: as §1
# oval-leafed pondweed = assay: Test Example 1: herbicidal activity, application before weed generation under submerged conditions (Table 16, symbol C); type: in vivo, oval-leafed pondweed (Monochoria vaginalis)
# Procedure, shortened: as §1
# barnyard grass [1] = assay: Test Example 3: herbicidal effect by foliage application, Wagner pot (Table 18, symbol H); type: in vivo, barnyard grass (Echinochloa crus-galli); conditions: 320 g/ha
# Procedure, shortened: (§2)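 Plants were sown in alluvial soil held under 0.1–0.5 cm standing water and grown 14 days in a greenhouse at 25–30 °C. An emulsifiable formulation, water-diluted to the set dose, was then sprayed onto the foliage, and effects were scored three weeks later using previously defined criteria.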
# Chinese sprangletop = assay: Test Example 3: herbicidal effect by foliage application, Wagner pot (Table 18, symbol D); type: in vivo, chinese sprangletop (Leptochloa chinensis); conditions: 320 g/ha
# Procedure, shortened: as §2
# rice flat sedge = assay: Test Example 3: herbicidal effect by foliage application, Wagner pot (Table 18, symbol E); type: in vivo, rice flat sedge (Cyperus iria); conditions: 320 g/ha
# Procedure, shortened: as §2
# southern crabgrass [2] = assay: Test Example 4: herbicidal effect by soil treatment (Table 19, symbol F); type: in vivo, southern crabgrass (Digitaria ciliaris)
# Procedure, shortened: (§3)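 Step 1: sow seeds in sterilized diluvial soil, cover ~1.5 cm. Step 2: spray diluted emulsion onto soil surface at predetermined rate. Step 3: greenhouse, 25–30° C, three weeks. Step 4: grade effect on each plant by earlier criteria.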
# green foxtail [3] = assay: Test Example 4: herbicidal effect by soil treatment (Table 19, symbol G); type: in vivo, green foxtail (Setaria viridis)
# Procedure, shortened: as §3
# barnyard grass [4] = assay: Test Example 4: herbicidal effect by soil treatment (Table 19, symbol H); type: in vivo, barnyard grass (Echinochloa crus-galli)
# Procedure, shortened: as §3
# wild oat [5] = assay: Test Example 4: herbicidal effect by soil treatment (Table 19, symbol I); type: in vivo, wild oat (Avena fatua)
# Procedure, shortened: as §3
# blackgrass [6] = assay: Test Example 4: herbicidal effect by soil treatment (Table 19, symbol J); type: in vivo, blackgrass (Alopecurus myosuroides)
# Procedure, shortened: as §3
# Italian ryegrass [7] = assay: Test Example 4: herbicidal effect by soil treatment (Table 19, symbol K); type: in vivo, Italian ryegrass (Lolium multiflorum)
# Procedure, shortened: as §3
# windgrass [8] = assay: Test Example 4: herbicidal effect by soil treatment (Table 19, symbol L); type: in vivo, windgrass (Apera spica-venti)
# Procedure, shortened: as §3
# velvetleaf [9] = assay: Test Example 4: herbicidal effect by soil treatment (Table 19, symbol M); type: in vivo, velvetleaf (Abutilon theophrasti)
# Procedure, shortened: as §3
# redroot pigweed = assay: Test Example 4: herbicidal effect by soil treatment (Table 19, symbol N); type: in vivo, redroot pigweed (Amaranthus retroflexus)
# Procedure, shortened: as §3
# lambsquarters [10] = assay: Test Example 4: herbicidal effect by soil treatment (Table 19, symbol O); type: in vivo, lambsquarters (Chenopodium album)
# Procedure, shortened: as §3
# chickweed = assay: Test Example 4: herbicidal effect by soil treatment (Table 19, symbol P); type: in vivo, common chickweed (Stellaria media)
# Procedure, shortened: as §3
# persian speedwell [11] = assay: Test Example 4: herbicidal effect by soil treatment (Table 19, symbol R); type: in vivo, Persian speedwell (Veronica persica)
# Procedure, shortened: as §3
# southern crabgrass [12] = assay: Test Example 5: herbicidal effect by foliage application, plastic box (Table 20, symbol F); type: in vivo, southern crabgrass (Digitaria ciliaris); conditions: foliage application, 320 g/ha
# Procedure, shortened: (§4)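 Foliar spray test: emulsion formulation diluted in water to a set application rate, sprayed onto 14-day-old plants raised in diluvial soil at 25° C to 30° C under glass. Both herbicidal effect and crop effect rated visually three weeks later.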
# green foxtail [13] = assay: Test Example 5: herbicidal effect by foliage application, plastic box (Table 20, symbol G); type: in vivo, green foxtail (Setaria viridis); conditions: foliage application, 320 g/ha
# Procedure, shortened: as §4
# barnyard grass [14] = assay: Test Example 5: herbicidal effect by foliage application, plastic box (Table 20, symbol H); type: in vivo, barnyard grass (Echinochloa crus-galli); conditions: foliage application, 320 g/ha
# Procedure, shortened: as §4
# wild oat [15] = assay: Test Example 5: herbicidal effect by foliage application, plastic box (Table 20, symbol I); type: in vivo, wild oat (Avena fatua); conditions: foliage application, 320 g/ha
# Procedure, shortened: as §4
# blackgrass [16] = assay: Test Example 5: herbicidal effect by foliage application, plastic box (Table 20, symbol J); type: in vivo, blackgrass (Alopecurus myosuroides); conditions: foliage application, 320 g/ha
# Procedure, shortened: as §4
# Italian ryegrass [17] = assay: Test Example 5: herbicidal effect by foliage application, plastic box (Table 20, symbol K); type: in vivo, Italian ryegrass (Lolium multiflorum); conditions: foliage application, 320 g/ha
# Procedure, shortened: as §4
# windgrass [18] = assay: Test Example 5: herbicidal effect by foliage application, plastic box (Table 20, symbol L); type: in vivo, windgrass (Apera spica-venti); conditions: foliage application, 320 g/ha
# Procedure, shortened: as §4
# velvetleaf [19] = assay: Test Example 5: herbicidal effect by foliage application, plastic box (Table 20, symbol M); type: in vivo, velvetleaf (Abutilon theophrasti); conditions: foliage application, 320 g/ha
# Procedure, shortened: as §4
# lambsquarters [20] = assay: Test Example 5: herbicidal effect by foliage application, plastic box (Table 20, symbol O); type: in vivo, lambsquarters (Chenopodium album); conditions: foliage application, 320 g/ha
# Procedure, shortened: as §4
# persian speedwell [21] = assay: Test Example 5: herbicidal effect by foliage application, plastic box (Table 20, symbol R); type: in vivo, Persian speedwell (Veronica persica); conditions: foliage application, 320 g/ha
# Procedure, shortened: as §4
# [22] = amount of applied herbicide 320 g/ha
structure (smiles),measurement,setting,value
Cc1nn(C)c(=O)c(-c2c(-c3ccc(C(F)(F)F)cc3)sc3ccc(F)cc23)c1O [2-020],Herbicidal effect on A: late watergrass (grade 0-5),late watergrass; 320 g/ha applied herbicide,0 (Herbicidal rate of 5% or less (almost no effect))
same,Herbicidal effect on B: Japanese bulrush (grade 0-5),Japanese bulrush; 320 g/ha applied herbicide,2 (Herbicidal rate of 20% or more and less than 40%)
same,Herbicidal effect on C: oval-leafed pondweed (grade 0-5),oval-leafed pondweed; 320 g/ha applied herbicide,0 (Herbicidal rate of 5% or less (almost no effect))
same,"herbicidal effect on H (barnyard grass), rating 0-5",barnyard grass [1],5 (Herbicidal rate of 90% or more (almost completely withered))
same,"herbicidal effect on D (Chinese sprangletop), rating 0-5",Chinese sprangletop,3 (Herbicidal rate of 40% or more and less than 70%)
same,"herbicidal effect on E (rice flat sedge), rating 0-5",rice flat sedge,5 (Herbicidal rate of 90% or more (almost completely withered))
same,"herbicidal effect rating, F: southern crabgrass",southern crabgrass [2]; 320 g/ha,3 (Herbicidal rate of 40% or more and less than 70%)
same,"herbicidal effect rating, G: green foxtail",green foxtail [3]; 320 g/ha,4 (Herbicidal rate of 70% or more and less than 90%)
same,"herbicidal effect rating, H: barnyard grass",barnyard grass [4]; 320 g/ha,2 (Herbicidal rate of 20% or more and less than 40%)
same,"herbicidal effect rating, I: wild oat",wild oat [5]; 320 g/ha,0 (Herbicidal rate of 5% or less (almost no effect))
same,"herbicidal effect rating, J: blackgrass",blackgrass [6]; 320 g/ha,3 (Herbicidal rate of 40% or more and less than 70%)
same,"herbicidal effect rating, K: Italian ryegrass",Italian ryegrass [7]; 320 g/ha,5 (Herbicidal rate of 90% or more (almost completely withered))
same,"herbicidal effect rating, L: windgrass",windgrass [8]; 320 g/ha,5 (Herbicidal rate of 90% or more (almost completely withered))
same,"herbicidal effect rating, M: velvetleaf",velvetleaf [9]; 320 g/ha,3 (Herbicidal rate of 40% or more and less than 70%)
same,"herbicidal effect rating, N: redroot pigweed",redroot pigweed; 320 g/ha,5 (Herbicidal rate of 90% or more (almost completely withered))
same,"herbicidal effect rating, O: lambsquarters",lambsquarters [10]; 320 g/ha,5 (Herbicidal rate of 90% or more (almost completely withered))
same,"herbicidal effect rating, P: chickweed",chickweed; 320 g/ha,3 (Herbicidal rate of 40% or more and less than 70%)
same,"herbicidal effect rating, R: persian speedwell",persian speedwell [11]; 320 g/ha,5 (Herbicidal rate of 90% or more (almost completely withered))
same,effect on southern crabgrass (F),southern crabgrass [12]; 3 weeks after application,5 (Herbicidal rate of 90% or more (almost completely withered))
same,effect on green foxtail (G),green foxtail [13]; 3 weeks after application,5 (Herbicidal rate of 90% or more (almost completely withered))
same,effect on barnyard grass (H),barnyard grass [14]; 3 weeks after application,5 (Herbicidal rate of 90% or more (almost completely withered))
same,effect on wild oat (I),wild oat [15]; 3 weeks after application,4 (Herbicidal rate of 70% or more and less than 90%)
same,effect on blackgrass (J),blackgrass [16]; 3 weeks after application,3 (Herbicidal rate of 40% or more and less than 70%)
same,effect on Italian ryegrass (K),Italian ryegrass [17]; 3 weeks after application,5 (Herbicidal rate of 90% or more (almost completely withered))
same,effect on windgrass (L),windgrass [18]; 3 weeks after application,5 (Herbicidal rate of 90% or more (almost completely withered))
same,effect on velvetleaf (M),velvetleaf [19]; 3 weeks after application,5 (Herbicidal rate of 90% or more (almost completely withered))
same,effect on lambsquarters (O),lambsquarters [20]; 3 weeks after application,5 (Herbicidal rate of 90% or more (almost completely withered))
same,effect on persian speedwell (R),persian speedwell [21]; 3 weeks after application,5 (Herbicidal rate of 90% or more (almost completely withered))
CCOc1ccccc1-c1sc2cc(OC)c(Cl)cc2c1-c1c(O)c(C)nn(C)c1=O [5-072],"Herbicidal effect, A: late watergrass",late watergrass; [22],0 (Herbicidal rate of 5% or less (almost no effect))
same,"Herbicidal effect, B: Japanese bulrush",Japanese bulrush; [22],2 (Herbicidal rate of 20% or more and less than 40%)
same,"Herbicidal effect, C: oval-leafed pondweed",oval-leafed pondweed; [22],0 (Herbicidal rate of 5% or less (almost no effect))
same,herbicidal effect on barnyard grass (H),barnyard grass [1],5 (Herbicidal rate of 90% or more (almost completely withered))
same,herbicidal effect on Chinese sprangletop (D),Chinese sprangletop,3 (Herbicidal rate of 40% or more and less than 70%)
same,herbicidal effect on rice flat sedge (E),rice flat sedge,5 (Herbicidal rate of 90% or more (almost completely withered))
same,"F: southern crabgrass, herbicidal effect grade",southern crabgrass [2]; [22],5 (Herbicidal rate of 90% or more (almost completely withered))
same,"G: green foxtail, herbicidal effect grade",green foxtail [3]; [22],4 (Herbicidal rate of 70% or more and less than 90%)
same,"H: barnyard grass, herbicidal effect grade",barnyard grass [4]; [22],1 (Herbicidal rate of 5% or more and less than 20%)
same,"I: wild oat, herbicidal effect grade",wild oat [5]; [22],0 (Herbicidal rate of 5% or less (almost no effect))
same,"J: blackgrass, herbicidal effect grade",blackgrass [6]; [22],0 (Herbicidal rate of 5% or less (almost no effect))
same,"K: Italian ryegrass, herbicidal effect grade",Italian ryegrass [7]; [22],0 (Herbicidal rate of 5% or less (almost no effect))
same,"L: windgrass, herbicidal effect grade",windgrass [8]; [22],0 (Herbicidal rate of 5% or less (almost no effect))
same,"M: velvetleaf, herbicidal effect grade",velvetleaf [9]; [22],1 (Herbicidal rate of 5% or more and less than 20%)
same,"N: redroot pigweed, herbicidal effect grade",redroot pigweed; [22],3 (Herbicidal rate of 40% or more and less than 70%)
same,"O: lambsquarters, herbicidal effect grade",lambsquarters [10]; [22],3 (Herbicidal rate of 40% or more and less than 70%)
same,"P: chickweed, herbicidal effect grade",chickweed; [22],2 (Herbicidal rate of 20% or more and less than 40%)
same,"R: persian speedwell, herbicidal effect grade",persian speedwell [11]; [22],3 (Herbicidal rate of 40% or more and less than 70%)
same,herbicidal effect on southern crabgrass (F),southern crabgrass [12]; three weeks after application,5 (Herbicidal rate of 90% or more (almost completely withered))
same,herbicidal effect on green foxtail (G),green foxtail [13]; three weeks after application,5 (Herbicidal rate of 90% or more (almost completely withered))
same,herbicidal effect on barnyard grass (H),barnyard grass [14]; three weeks after application,5 (Herbicidal rate of 90% or more (almost completely withered))
same,herbicidal effect on wild oat (I),wild oat [15]; three weeks after application,2 (Herbicidal rate of 20% or more and less than 40%)
same,herbicidal effect on blackgrass (J),blackgrass [16]; three weeks after application,3 (Herbicidal rate of 40% or more and less than 70%)
same,herbicidal effect on Italian ryegrass (K),Italian ryegrass [17]; three weeks after application,0 (Herbicidal rate of 5% or less (almost no effect))
same,herbicidal effect on windgrass (L),windgrass [18]; three weeks after application,5 (Herbicidal rate of 90% or more (almost completely withered))
same,herbicidal effect on velvetleaf (M),velvetleaf [19]; three weeks after application,5 (Herbicidal rate of 90% or more (almost completely withered))
same,herbicidal effect on lambsquarters (O),lambsquarters [20]; three weeks after application,4 (Herbicidal rate of 70% or more and less than 90%)
same,herbicidal effect on persian speedwell (R),persian speedwell [21]; three weeks after application,5 (Herbicidal rate of 90% or more (almost completely withered))
